The assay concerns the target Serine/threonine-protein phosphatase 2A catalytic subunit alpha isoform (Bos taurus) (UniProt P67774). As to the kind of experiment: dose-dependent inhibition of bovine PP2A – biochemical, bovine brain PP2A, 32P-phosphohistone, dose response, round 5, selectivity assay for PP5 inhibitor project, late-stage follow-up (AID 624447). To be noted: purified bovine PP2A, 32P-phosphohistone dephosphorylation, scintillation.

Calls of active or inactive are those of the source.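 How the source made its calls: active means PP2A blockers whose half-maximal inhibitory concentration IC50 falls below 50 µM; inactive means IC50 at or above 50 µM.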

Chain of Serine/threonine-protein phosphatase 2A catalytic subunit alpha isoform (Bos taurus) (P67774 whole entry, looked up, canonical isoform): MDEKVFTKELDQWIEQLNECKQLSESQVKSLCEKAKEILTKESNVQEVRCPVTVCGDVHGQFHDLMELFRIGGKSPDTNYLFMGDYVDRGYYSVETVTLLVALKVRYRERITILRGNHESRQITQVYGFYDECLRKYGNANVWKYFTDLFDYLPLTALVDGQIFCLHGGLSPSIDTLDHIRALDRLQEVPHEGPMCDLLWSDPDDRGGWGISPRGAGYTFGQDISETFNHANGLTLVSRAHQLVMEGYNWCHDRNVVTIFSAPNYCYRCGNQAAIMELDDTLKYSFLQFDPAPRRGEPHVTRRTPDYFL

With `CC(C)Oc1ccccc1-c1n[nH]nc1C(=O)O`, the IC50 entry is “inactive”.

Source of the values: PubChem BioAssay AID624447 (The Scripps Research Institute Molecular Screening Center, 2012).
